Tests used:
Type in all cases: cell-based
human TLR9 = biological target: T1, human TLR9 (Homo sapiens, UniProt Q9NR96); experiment: TLR9 inhibition reporter assay (HEK-Blue SEAP reporter, ODN2006 stimulation); details: HEK-Blue cells overexpressing human TLR9, SEAP reporter, ODN2006 5 nM, 22 hour incubation
T1 construct: host or cells: HEK-Blue cells
T1 sequence (Q9NR96 26-1032): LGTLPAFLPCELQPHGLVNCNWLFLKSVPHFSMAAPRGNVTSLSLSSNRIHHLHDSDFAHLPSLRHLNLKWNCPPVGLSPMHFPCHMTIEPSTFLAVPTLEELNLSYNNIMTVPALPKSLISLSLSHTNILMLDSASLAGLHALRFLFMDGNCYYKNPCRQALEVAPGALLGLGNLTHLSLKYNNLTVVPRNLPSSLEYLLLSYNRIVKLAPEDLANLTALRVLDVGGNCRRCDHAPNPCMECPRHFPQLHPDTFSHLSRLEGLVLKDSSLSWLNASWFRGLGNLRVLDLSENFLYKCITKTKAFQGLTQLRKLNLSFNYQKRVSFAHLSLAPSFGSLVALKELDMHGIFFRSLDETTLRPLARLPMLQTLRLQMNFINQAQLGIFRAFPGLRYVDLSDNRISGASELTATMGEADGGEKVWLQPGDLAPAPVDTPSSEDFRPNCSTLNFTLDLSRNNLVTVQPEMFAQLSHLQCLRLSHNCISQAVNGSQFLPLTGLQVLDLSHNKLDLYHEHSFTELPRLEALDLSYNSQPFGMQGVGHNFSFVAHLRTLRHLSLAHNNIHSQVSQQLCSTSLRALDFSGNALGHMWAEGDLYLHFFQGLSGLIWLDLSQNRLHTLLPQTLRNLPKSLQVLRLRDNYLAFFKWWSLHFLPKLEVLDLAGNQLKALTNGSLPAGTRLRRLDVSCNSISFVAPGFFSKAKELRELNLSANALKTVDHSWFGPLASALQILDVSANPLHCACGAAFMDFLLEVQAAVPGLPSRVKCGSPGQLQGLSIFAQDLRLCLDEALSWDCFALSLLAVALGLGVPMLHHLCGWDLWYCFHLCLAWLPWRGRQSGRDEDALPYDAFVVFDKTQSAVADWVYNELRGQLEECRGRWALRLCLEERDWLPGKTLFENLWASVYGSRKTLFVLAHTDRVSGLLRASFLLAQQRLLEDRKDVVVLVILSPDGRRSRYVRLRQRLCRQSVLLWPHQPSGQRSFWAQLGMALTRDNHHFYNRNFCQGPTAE
Procedure, shortened: (§1)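 HEK-Blue cells overexpressing human TLR7, TLR8 or TLR9 carry a SEAP reporter driven by NF-κB/AP-1 sites. Compounds (0.05 nM–50 μM) were preincubated 30 min at room temperature, then cells were stimulated with gardiquimod 7.5 μM (TLR7), R848 15.9 μM (TLR8) or ODN2006 5 nM (TLR9) for 22 h at 37 °C.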

human TLR7 = biological target: T2, human TLR7 (Homo sapiens, UniProt Q9NYK1); experiment: TLR7 inhibition reporter assay (HEK-Blue SEAP reporter, gardiquimod stimulation); details: HEK-Blue cells overexpressing human TLR7, SEAP reporter, gardiquimod 7.5 μM, 22 hour incubation
T2 construct: host or cells: HEK-Blue cells
T2 sequence (Q9NYK1 27-1049): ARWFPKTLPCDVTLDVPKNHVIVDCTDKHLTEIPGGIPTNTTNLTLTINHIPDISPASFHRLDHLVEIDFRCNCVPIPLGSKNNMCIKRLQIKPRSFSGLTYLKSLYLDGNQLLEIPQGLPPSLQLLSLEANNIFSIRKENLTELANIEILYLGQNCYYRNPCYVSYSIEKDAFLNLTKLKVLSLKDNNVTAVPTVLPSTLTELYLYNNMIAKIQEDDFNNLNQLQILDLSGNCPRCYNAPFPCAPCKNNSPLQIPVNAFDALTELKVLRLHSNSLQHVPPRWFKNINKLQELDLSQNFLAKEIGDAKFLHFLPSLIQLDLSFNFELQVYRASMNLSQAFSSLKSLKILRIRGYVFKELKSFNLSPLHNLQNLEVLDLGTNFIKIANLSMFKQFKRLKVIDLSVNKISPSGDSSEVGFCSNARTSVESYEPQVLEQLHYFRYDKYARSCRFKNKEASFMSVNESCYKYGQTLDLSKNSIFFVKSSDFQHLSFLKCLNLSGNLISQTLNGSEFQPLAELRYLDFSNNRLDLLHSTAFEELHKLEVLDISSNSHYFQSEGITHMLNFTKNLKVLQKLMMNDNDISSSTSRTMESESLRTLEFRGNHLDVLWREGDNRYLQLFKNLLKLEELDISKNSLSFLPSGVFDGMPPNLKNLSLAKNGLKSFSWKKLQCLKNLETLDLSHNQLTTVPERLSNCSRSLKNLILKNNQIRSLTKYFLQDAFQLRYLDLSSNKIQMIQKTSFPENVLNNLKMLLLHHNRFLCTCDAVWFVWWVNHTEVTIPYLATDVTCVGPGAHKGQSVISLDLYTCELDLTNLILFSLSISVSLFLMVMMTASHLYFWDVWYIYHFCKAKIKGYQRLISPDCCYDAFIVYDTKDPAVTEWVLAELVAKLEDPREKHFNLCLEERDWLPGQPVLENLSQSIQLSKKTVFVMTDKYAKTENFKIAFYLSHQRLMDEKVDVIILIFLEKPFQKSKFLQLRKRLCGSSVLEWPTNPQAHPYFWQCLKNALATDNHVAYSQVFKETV
Procedure, shortened: as §1

human TLR8 = biological target: T3, human TLR8 (Homo sapiens, UniProt Q9NR97); experiment: TLR8 inhibition reporter assay (HEK-Blue SEAP reporter, R848 stimulation); details: HEK-Blue cells overexpressing human TLR8, SEAP reporter, R848 15.9 μM, 22 hour incubation
T3 construct: host or cells: HEK-Blue cells
T3 sequence (Q9NR97 27-1041): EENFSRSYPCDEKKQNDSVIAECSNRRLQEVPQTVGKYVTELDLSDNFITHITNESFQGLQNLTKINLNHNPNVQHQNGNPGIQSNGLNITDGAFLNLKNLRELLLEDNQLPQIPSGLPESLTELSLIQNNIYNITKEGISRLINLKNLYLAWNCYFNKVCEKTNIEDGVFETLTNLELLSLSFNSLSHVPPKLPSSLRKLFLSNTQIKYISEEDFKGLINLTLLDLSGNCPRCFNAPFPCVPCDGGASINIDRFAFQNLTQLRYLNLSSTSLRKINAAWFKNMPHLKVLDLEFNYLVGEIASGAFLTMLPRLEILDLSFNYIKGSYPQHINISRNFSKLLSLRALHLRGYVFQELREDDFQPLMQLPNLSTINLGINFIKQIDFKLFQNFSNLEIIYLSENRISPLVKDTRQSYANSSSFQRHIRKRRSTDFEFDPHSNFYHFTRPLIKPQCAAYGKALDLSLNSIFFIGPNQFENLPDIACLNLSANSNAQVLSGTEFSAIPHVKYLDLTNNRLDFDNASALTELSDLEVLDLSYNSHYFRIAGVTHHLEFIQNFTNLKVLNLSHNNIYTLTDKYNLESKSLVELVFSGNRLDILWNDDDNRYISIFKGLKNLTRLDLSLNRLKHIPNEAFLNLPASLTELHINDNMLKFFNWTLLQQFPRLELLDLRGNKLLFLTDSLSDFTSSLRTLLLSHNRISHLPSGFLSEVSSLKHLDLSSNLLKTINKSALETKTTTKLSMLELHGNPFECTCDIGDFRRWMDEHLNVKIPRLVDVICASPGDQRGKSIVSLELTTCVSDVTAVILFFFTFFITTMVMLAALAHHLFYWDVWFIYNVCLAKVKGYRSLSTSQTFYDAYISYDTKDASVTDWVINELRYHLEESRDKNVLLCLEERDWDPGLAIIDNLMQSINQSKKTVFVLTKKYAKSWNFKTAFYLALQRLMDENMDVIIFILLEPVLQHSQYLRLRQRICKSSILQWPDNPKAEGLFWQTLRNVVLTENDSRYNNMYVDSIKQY
Procedure, shortened: as §1

| IC50 (human TLR9) [µM] | IC50 (human TLR7) [µM] | IC50 (human TLR8) [µM] | SMILES |
| --- | --- | --- | --- |
| 1.56 | 0.11 | 0.157 | Cc1cc(-c2[nH]c3ccc(C4CCNCC4)cc3c2C(C)C)cn(CC(C)(C)O)c1=O [Example 43, 1-(2-hydroxy-2-methylpropyl)-5-(3-isopropyl-5-(piperidin-4-yl)-1H-indol-2-yl)-3-methylpyridin-2(1H)-one] |
| 2.08 | 0.0038 | 0.0194 | Cc1cc(-c2[nH]c3ccc(C4CCNCC4)cc3c2C(C)C)cn(-c2ccccc2)c1=O [Example 44, 5-(3-isopropyl-5-(piperidin-4-yl)-1H-indol-2-yl)-3-methyl-1-phenylpyridin-2(1H)-one] |
| 4.67 | 0.0129 | 0.0484 | Cc1cc(-c2[nH]c3ccc(C4CCNCC4)cc3c2C(C)C)cn(CC(F)(F)F)c1=O [Example 45, 5-(3-isopropyl-5-(piperidin-4-yl)-1H-indol-2-yl)-3-methyl-1-(2,2,2-trifluoroethyl)pyridin-2(1H)-one] |
| 0.919 | 0.0029 | 0.0299 | Cc1cc(-c2[nH]c3ccc(C4CCNCC4)cc3c2C(C)C)cn(Cc2ccccc2)c1=O [Example 46, 1-benzyl-5-(3-isopropyl-5-(piperidin-4-yl)-1H-indol-2-yl)-3-methylpyridin-2(1H)-one] |
| 1.89 | 0.0319 | 0.0411 | CC(C)c1c(-c2cc(C#N)c(=O)n(C)c2)[nH]c2ccc(C3CCNCC3)cc12 [Example 47, 5-(3-isopropyl-5-(piperidin-4-yl)-1H-indol-2-yl)-1-methyl-2-oxo-1,2-dihydropyridine-3-carbonitrile] |
| 1.27 | 13.9 | ≥ 50 | CC(C)c1c(-c2ccc(=O)n(CC(C)(C)O)c2)[nH]c2ccc(C3CCNCC3)cc12 [Example 48, 1-(2-hydroxy-2-methylpropyl)-5-(3-isopropyl-5-(piperidin-4-yl)-1H-indol-2-yl)pyridin-2(1H)-one] |
| ≥ 50 | 2.61 | 2.09 | CC(C)c1c(-c2ccc(=O)n(CC(N)=O)c2)[nH]c2ccc(C3CCNCC3)cc12 [Example 49, 2-(5-(3-isopropyl-5-(piperidin-4-yl)-1H-indol-2-yl)-2-oxopyridin-1(2H)-yl)acetamide] |
| 0.411 | 0.0068 | 0.0077 | CC(C)c1c(-c2cc(-c3cccnc3)c(=O)n(C)c2)[nH]c2ccc(C3CCNCC3)cc12 [Example 50, 5-(3-isopropyl-5-(piperidin-4-yl)-1H-indol-2-yl)-1-methyl-[3,3′-bipyridin]-2(1H)-one] |
| 2.58 | 0.0109 | 0.0306 | C=C(C)c1cc(-c2[nH]c3ccc(C4CCNCC4)cc3c2C(C)C)cn(C)c1=O [Example 51, 5-(3-isopropyl-5-(piperidin-4-yl)-1H-indol-2-yl)-1-methyl-3-(prop-1-en-2-yl)pyridin-2(1H)-one] |
| 1.52 | 0.185 | 0.142 | CC(C)c1c(-c2cc(/C=C/C3CC3)c(=O)n(C)c2)[nH]c2ccc(C3CCNCC3)cc12 [Example 52, (E)-3-(2-cyclopropylvinyl)-5-(3-isopropyl-5-(piperidin-4-yl)-1H-indol-2-yl)-1-methylpyridin-2(1H)-one] |
| 0.753 | 0.0234 | 0.0059 | CC(C)c1c(-c2cc(-c3cncnc3)c(=O)n(C)c2)[nH]c2ccc(C3CCNCC3)cc12 [Example 54, 5-(3-isopropyl-5-(piperidin-4-yl)-1H-indol-2-yl)-1-methyl-3-(pyrimidin-5-yl)pyridin-2(1H)-one] |
| 2.29 | 0.0139 | 0.203 | Cc1ccc(-c2cc(-c3[nH]c4ccc(C5CCNCC5)cc4c3C(C)C)cn(C)c2=O)cc1 [Example 55, 5-(3-isopropyl-5-(piperidin-4-yl)-1H-indol-2-yl)-1-methyl-3-(p-tolyl) pyridin-2(1H)-one] |
| 0.408 | 0.0137 | 0.049 | CC(C)c1c(-c2cc(-c3cccc(C#N)c3)c(=O)n(C)c2)[nH]c2ccc(C3CCNCC3)cc12 [Example 56, 3-(5-(3-isopropyl-5-(piperidin-4-yl)-1H-indol-2-yl)-1-methyl-2-oxo-1,2-dihydropyridin-3-yl)benzonitrile] |
| 1.36 | 0.0684 | 0.0819 | COc1ncccc1-c1cc(-c2[nH]c3ccc(C4CCNCC4)cc3c2C(C)C)cn(C)c1=O [Example 57, 5-(3-isopropyl-5-(piperidin-4-yl)-1H-indol-2-yl)-2′-methoxy-1-methyl[3,3′-bipyridin]-2(1H)-one] |
| 3.48 | 0.0054 | 0.222 | CC(C)c1c(-c2cc(-c3cccc(C(N)=O)c3)c(=O)n(C)c2)[nH]c2ccc(C3CCNCC3)cc12 [Example 58, 3-(5-(3-isopropyl-5-(piperidin-4-yl)-1H-indol-2-yl)-1-methyl-2-oxo-1,2-dihydropyridin-3-yl)benzamide] |
